Source: patent US20070020340A1, “Fish oil products for reducing cholesterol, low density lipoprotein, and hypertension” (priority 2005, published 2007)

Tests used:
[1] = test system: men with moderately elevated cholesterol who also suffered from moderate to high hypertension; assay: 16-week study of fish oil (EPA/DHA) with or without allicin, oleuropein or Policosanol in eight treatment groups; type: in vivo, human; details: after sixteen weeks of daily treatment
Description: Eighty men with moderately elevated cholesterol who also suffered from moderate to high hypertension, were assigned to one of eight treatment groups, and followed for 16 weeks. The EPA and DHA administered was from fish oil and in free fatty acid form containing 3 grams of EPA and 2 grams of DHA, administered daily. Group one received fish oil alone. Group two received the same amount of fish oil with 5 mg allicin dissolved in the fish oil. Group three received the same amount of fish oil with 100 mg oleuropein dissolved therein. Group four received the same amount of fish oil with 10 mg of Policosanol dissolved therein. Group five received soft gelatin capsules with sunflower oil rather than fish oil. Group six received 5 mg of allicin dissolved in sunflower oil. Group seven received 100 mg oleuropein dissolved in sunflower oil. Group eight received Policosanol dissolved in sunflower oil. After sixteen weeks of treatment, the results were as follows: • 1. Group one registered 5% lowering of serum triglycerides. There was no change in HDL cholesterol and an 8% increase in LDL. Systolic blood pressure dropped by average of 3% and diastolic blood pressure dropped by average of 2%. • 2. Group two registered a 30% lowering of triglycerides, 12% decrease in LDL, and 8% increase in HDL. Both systolic and diastolic blood pressure dropped by an average of 10% • 3. Group three registered a 25% lowering of serum triglycerides, 10% decrease of LDL, and 10% increase in HDL. Systolic pressure dropped by average of 12% and diastolic pressure dropped by average of 10% • 4. Group four registered 20% lowering of serum triglycerides, 12% decrease of LDL, and 8% increase in HDL. Systolic and diastolic pressure dropped by average of 10%. • 5. Group five had no change in any of the parameters tested. • 6. Group six registered 3% lowering of serum triglycerides, 6% lowering of LDL and 2% increase of HDL. Sistolic and diastolic pressure dropped by average of 5% • 7. […] Systolic blood pressure dropped by average of 7% and diastolic pressure dropped by average of 5%. • 8. Group eight registered 10% lowering of serum triglycerids, 8% lowering of LDL, and 5% increase of HDL.

[2] = test system: hyperlipidemic rabbits; details: cholesterol-rich diet; cited from earlier work
[3] = test system: interleukin-1-beta; details: cited from earlier work
[4] = compared with oleuropein, tyrosol, hydroxytyrosol; cited from earlier work

## C/C=C1/[C@H](O[C@@H]2O[C@H](CO)[C@@H](O)[C@H](O)[C@H]2O)OC=C(C(=O)OC)[C@H]1CC(=O)OCCc1ccc(O)c(O)c1 [Group seven, oleuropein]
[1]
  diastolic blood pressure dropped by average of: 5%
  lowering of serum triglycerides: 12%
  systolic blood pressure dropped by average of: 7%

## C=CCS[S+]([O-])CC=C (stereo not drawn) [Group six, allicin]
[1]
  decrease in LDL: 6%
  diastolic blood pressure dropped by average of: 5%
  increase in HDL: 2%
  lowering of serum triglycerides: 3%
  systolic blood pressure dropped by average of: 5%

## C=CCS[S+]([O-])CC=C (stereo not drawn) [allicin]
[2]
  effect on the serum lipid profile: beneficial effect

## O=C(O)/C=C/c1ccc(O)c(O)c1 [carreic acid]
[3]
  concentration of interleukin-1-beta: decreased

## COc1cc(CCO)ccc1O [homovanillic alcohol]
[4]
  antioxidant potency: significantly more potent antioxidant than the other phenolics

## C/C=C1/[C@H](O[C@@H]2O[C@H](CO)[C@@H](O)[C@H](O)[C@H]2O)OC=C(C(=O)OC)[C@H]1CC(=O)OCCc1ccc(O)c(O)c1 [oleuropein glycoside]
[3]
  concentration of interleukin-1-beta: decreased
